Measured values published in patent publication US12358901B2, “KV3 modulators” (priority 2018, dated 2025).
Values joined by “and” are separate entries in the source; they are usually repeats but may differ in a detail not shown here. Equal values may be shown once.

Biological target: human Kv3.1 channels (hKv3.1) (Homo sapiens, UniProt P48547)
Test: cell-based
Type: cell-based
Conditions: for Kv3.1 pEC50: HEK-hKv3.1 cells, -15 mV voltage step, normalised to 50 microM reference compound; for Kv3.1 max R %: maximum response relative to reference compound (50 microM)
From the text: The ability of the compounds of the invention to modulate the voltage-gated potassium channel subtypes Kv3.3/Kv3.2/Kv3.1 may be determined using the following assay. Analogous methods may be used to investigate the ability of the compounds of the invention to modulate other channel subtypes.
To assess compound effects on human Kv3.1 channels (hKv3.1):
Human embryonic kidney (HEK)-hKv3.1 cell line is generated by transfecting HEK-293 cells with an expression vector with human Kv3.1 (NM_004976.4). Cells are cultured with MEM supplemented with 10% Heat-Inactivated FBS, 2 mM L-glutamine, 1% Penicillin-Streptomycin, and 0.6 mg/ml of Geneticin (G418). HEK-hKv3.1b cells were amplified in T175 cm2 flask at 37° C. with 5% CO2, using MEM amplification medium, containing the G418 selection antibiotic (0.6 mg/ml). Cells were detached every 3-4 days, using DPBS to wash twice the flask, then TrypLE to dislodge the cells, and re-plated at a density of 2-4×10^6 cells/flask.
The day of the experiment, cells are removed from the incubator and the culture medium removed. Cells are washed with 5 ml of Dulbecco's PBS (DPBS) calcium and magnesium free and detached by the addition of 3 ml Versene (Invitrogen, Italy) followed by a brief incubation at 37° C. for 5 minutes. The flask is tapped to dislodge cells and 10 ml of DPBS containing calcium and magnesium is added to prepare a cell suspension. The cell suspension is then placed into a 15 ml centrifuge tube and centrifuged for 2 min at 1200 rpm. After centrifugation, the supernatant is removed and the cell pellet re-suspended in 4 ml of DPBS containing calcium and magnesium using a 5 ml pipette to break up the pellet. Cell suspension volume is then corrected to give a cell concentration for the assay of approximately 3 million cells per ml.
Experiments are conducted at r.t. using IonWorks Quattro™ planar array electrophysiology technology (Molecular Devices Corp.) with PatchPlate™ PPC. Stimulation protocols and data acquisition are carried out using a microcomputer (Dell Pentium 4). Planar electrode hole resistances (Rp) are determined by applying a 10 mV voltage step across each well. These measurements are performed before cell addition. After cell addition and seal formation, a seal test is performed by applying a voltage step from −80 mV to −70 mV for 160 ms. Following this, amphotericin-B solution is added to the intracellular face of the electrode to achieve intracellular access. Cells are held at −70 mV. Leak subtraction is conducted in all experiments by applying 50 ms hyperpolarizing (10 mV) prepulses to evoke leak currents followed by a 20 ms period at the holding potential before test pulses.
For hKv3.2 and hKv3.1, assays from the holding potential of −70 mV, a first test pulse at −15 mV was applied for 100 ms and after 100 ms at −70 mV a second pulse at +40 mV was applied for 50 ms. Cells were then maintained for 100 ms at −100 mV and another pulse from −70 mV to +40 mV (duration 50 ms) was applied to clamp later the voltage at −40 mV during 200 ms
The intracellular solution contains the following (in mM): K-gluconate 100, KCl 54, MgCl2 3.2, HEPES 5, adjusted to pH 7.3 with KOH. Amphotericin-B solution is prepared as 50 mg/ml stock solution in DMSO and diluted to a final working concentration of 0.1 mg/ml in intracellular solution. The external solution is Dulbecco's Phosphate Buffered Saline (DPBS) and contained the following (in mM): CaCl2 0.90, KCl 2.67, KH2PO4 1.47, MgCl·6H2O 0.493, NaCl 136.9, Na3PO4 8.06, with a pH of 7.4.
Compounds of use in the invention (or reference compounds such as N-cyclohexyl-N-[(7,8-dimethyl-2-oxo-1,2-dihydro-3-quinolinyl)methyl]-N-phenylurea) are dissolved in dimethylsulfoxide (DMSO) at a stock concentration of 10 mM. These solutions are further diluted with DMSO using a Biomek FX (Beckman Coulter) in a 384 compound plate. Each dilution (1 μL) is transferred to another compound plate and external solution containing 0.05% pluronic acid (66 μL) is added. […]

| Structure (SMILES) | Kv3.1 pEC50 | Kv3.1 max R % |
| --- | --- | --- |
| Cc1ccc(Oc2ncc(N3C(=O)NC(C)(C)C3=O)cn2)c2c1OCC21CC1 [RE5, reference compound] | 5.14 | 158% |
| CC[C@H]1NC(=O)N(c2ccc(Oc3cccc4c3C3(CC3)CO4)nc2)C1=O [RE13, (5R)-5-ethyl-3-(6-spiro[2H-benzofuran-3,1′-cyclopropane]-4-yloxy-3-pyridyl)imidazolidine-2,4-dione, reference compound] | 6.1 | 149% |
| CC[C@H]1NC(=O)N(c2cnc(Oc3cccc4c3C3(CC3)CO4)cn2)C1=O [Example 10, (5R)-5-ethyl-3-(5-spiro[2H-benzofuran-3,1′-cyclopropane]-4-yloxypyrazin-2-yl)imidazolidine-2,4-dione] | 5.45 and 5.63 | 153% and 147% |
| CC[C@H]1NC(=O)N(c2ccc(Oc3ccc(C)c4c3C3(CC3)CO4)nc2)C1=O [RE11, reference compound] | 6.1 | 152% |
| CC[C@H]1NC(=O)N(c2cnc(Oc3ccc(C)c4c3C3(CC3)CO4)cn2)C1=O [Example 9, (5R)-5-ethyl-3-[5-(7-methylspiro[2H-benzofuran-3,1′-cyclopropane]-4-yl)oxypyrazin-2-yl]imidazolidine-2,4-dione] | 5.88 and 5.90 | 172% and 146% |
